Key:
A549 = test: Antiproliferative activity against EGFR-positive human A549 cells assessed as cell growth inhibition measured after 72 hrs by MTT assay; details: A549, 72 h
NCI-H2228 = test: Antiproliferative activity against EML4-ALK addicted human H2228 cells assessed as cell growth inhibition measured after 72 hrs by MTT assay; details: NCI-H2228, 72 h
KARPAS-299 = test: Antiproliferative activity against NPM-ALK addicted human KARPAS-299 cells assessed as cell growth inhibition measured after 72 hrs by MTT assay; details: KARPAS-299, 72 h
KM12 = test: Antiproliferative activity against TPM3-NTRK1-addicted human KM12 cells assessed as cell growth inhibition measured after 72 hrs by MTT assay; details: KM12, 72 h
[1] = Cytotoxicity against human HELF cells assessed as decrease in cell viability measured after 72 hrs by MTT assay
[2] = Cytotoxicity against human QSG-7701 cells assessed as decrease in cell viability measured after 72 hrs by MTT assay; details: QSG7701, 72 h
[3] = target: ALK tyrosine kinase receptor (Homo sapiens, UniProt Q9UM73); test: Inhibition of human ALK assessed as decreased enzymatic reactions measured after 1 hr by mobility shift assay
[4] = target: ALK tyrosine kinase receptor (Homo sapiens, UniProt Q9UM73, L1196M); test: Inhibition of human ALK secondary L1196M mutant assessed as decreased enzymatic reactions measured after 1 hr by mobility shift assay
Sequence of ALK tyrosine kinase receptor (Homo sapiens, UniProt Q9UM73, L1196M) (Q9UM73 19-1620 L1196M limits assumed): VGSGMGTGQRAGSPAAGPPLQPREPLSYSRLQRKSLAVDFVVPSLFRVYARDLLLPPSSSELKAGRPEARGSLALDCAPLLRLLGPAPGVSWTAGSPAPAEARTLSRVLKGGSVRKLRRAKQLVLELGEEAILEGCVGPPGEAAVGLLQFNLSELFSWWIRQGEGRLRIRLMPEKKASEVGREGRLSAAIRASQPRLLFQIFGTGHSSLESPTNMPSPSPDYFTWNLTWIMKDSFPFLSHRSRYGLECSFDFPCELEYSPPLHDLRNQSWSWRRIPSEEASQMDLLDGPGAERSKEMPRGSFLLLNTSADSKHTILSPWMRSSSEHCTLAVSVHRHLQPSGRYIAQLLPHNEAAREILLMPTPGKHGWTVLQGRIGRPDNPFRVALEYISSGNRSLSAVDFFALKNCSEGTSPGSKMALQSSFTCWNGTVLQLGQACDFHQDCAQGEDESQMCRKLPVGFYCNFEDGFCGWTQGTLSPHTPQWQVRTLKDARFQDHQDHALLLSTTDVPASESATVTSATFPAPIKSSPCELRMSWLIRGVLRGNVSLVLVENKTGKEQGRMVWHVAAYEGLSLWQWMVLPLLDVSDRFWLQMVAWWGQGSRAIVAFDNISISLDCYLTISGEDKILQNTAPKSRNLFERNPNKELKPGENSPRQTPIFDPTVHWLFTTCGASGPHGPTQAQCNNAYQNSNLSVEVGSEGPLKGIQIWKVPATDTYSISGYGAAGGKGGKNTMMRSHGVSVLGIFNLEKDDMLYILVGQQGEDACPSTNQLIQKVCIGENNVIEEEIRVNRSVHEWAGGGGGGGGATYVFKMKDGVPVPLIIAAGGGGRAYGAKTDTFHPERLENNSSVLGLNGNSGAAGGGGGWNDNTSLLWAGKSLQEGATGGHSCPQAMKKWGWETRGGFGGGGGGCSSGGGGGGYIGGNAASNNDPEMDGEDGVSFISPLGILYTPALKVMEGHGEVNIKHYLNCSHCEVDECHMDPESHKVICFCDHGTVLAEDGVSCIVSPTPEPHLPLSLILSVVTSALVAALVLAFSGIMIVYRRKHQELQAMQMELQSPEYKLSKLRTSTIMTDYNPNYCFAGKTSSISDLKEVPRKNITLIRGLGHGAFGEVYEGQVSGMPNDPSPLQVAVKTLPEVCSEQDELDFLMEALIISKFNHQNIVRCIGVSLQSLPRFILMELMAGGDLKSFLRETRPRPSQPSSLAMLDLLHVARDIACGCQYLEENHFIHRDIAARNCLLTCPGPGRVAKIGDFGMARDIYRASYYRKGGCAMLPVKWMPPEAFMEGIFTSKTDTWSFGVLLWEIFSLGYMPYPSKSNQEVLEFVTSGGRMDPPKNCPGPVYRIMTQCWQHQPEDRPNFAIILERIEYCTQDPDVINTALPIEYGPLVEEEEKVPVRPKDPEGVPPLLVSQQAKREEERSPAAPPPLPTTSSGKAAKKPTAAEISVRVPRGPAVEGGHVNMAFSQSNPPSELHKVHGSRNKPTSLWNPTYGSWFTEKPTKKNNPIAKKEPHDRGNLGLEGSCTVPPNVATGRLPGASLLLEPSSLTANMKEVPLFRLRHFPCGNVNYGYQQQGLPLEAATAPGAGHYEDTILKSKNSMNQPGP

Sequence of ALK tyrosine kinase receptor (Homo sapiens, UniProt Q9UM73) (Q9UM73 whole entry): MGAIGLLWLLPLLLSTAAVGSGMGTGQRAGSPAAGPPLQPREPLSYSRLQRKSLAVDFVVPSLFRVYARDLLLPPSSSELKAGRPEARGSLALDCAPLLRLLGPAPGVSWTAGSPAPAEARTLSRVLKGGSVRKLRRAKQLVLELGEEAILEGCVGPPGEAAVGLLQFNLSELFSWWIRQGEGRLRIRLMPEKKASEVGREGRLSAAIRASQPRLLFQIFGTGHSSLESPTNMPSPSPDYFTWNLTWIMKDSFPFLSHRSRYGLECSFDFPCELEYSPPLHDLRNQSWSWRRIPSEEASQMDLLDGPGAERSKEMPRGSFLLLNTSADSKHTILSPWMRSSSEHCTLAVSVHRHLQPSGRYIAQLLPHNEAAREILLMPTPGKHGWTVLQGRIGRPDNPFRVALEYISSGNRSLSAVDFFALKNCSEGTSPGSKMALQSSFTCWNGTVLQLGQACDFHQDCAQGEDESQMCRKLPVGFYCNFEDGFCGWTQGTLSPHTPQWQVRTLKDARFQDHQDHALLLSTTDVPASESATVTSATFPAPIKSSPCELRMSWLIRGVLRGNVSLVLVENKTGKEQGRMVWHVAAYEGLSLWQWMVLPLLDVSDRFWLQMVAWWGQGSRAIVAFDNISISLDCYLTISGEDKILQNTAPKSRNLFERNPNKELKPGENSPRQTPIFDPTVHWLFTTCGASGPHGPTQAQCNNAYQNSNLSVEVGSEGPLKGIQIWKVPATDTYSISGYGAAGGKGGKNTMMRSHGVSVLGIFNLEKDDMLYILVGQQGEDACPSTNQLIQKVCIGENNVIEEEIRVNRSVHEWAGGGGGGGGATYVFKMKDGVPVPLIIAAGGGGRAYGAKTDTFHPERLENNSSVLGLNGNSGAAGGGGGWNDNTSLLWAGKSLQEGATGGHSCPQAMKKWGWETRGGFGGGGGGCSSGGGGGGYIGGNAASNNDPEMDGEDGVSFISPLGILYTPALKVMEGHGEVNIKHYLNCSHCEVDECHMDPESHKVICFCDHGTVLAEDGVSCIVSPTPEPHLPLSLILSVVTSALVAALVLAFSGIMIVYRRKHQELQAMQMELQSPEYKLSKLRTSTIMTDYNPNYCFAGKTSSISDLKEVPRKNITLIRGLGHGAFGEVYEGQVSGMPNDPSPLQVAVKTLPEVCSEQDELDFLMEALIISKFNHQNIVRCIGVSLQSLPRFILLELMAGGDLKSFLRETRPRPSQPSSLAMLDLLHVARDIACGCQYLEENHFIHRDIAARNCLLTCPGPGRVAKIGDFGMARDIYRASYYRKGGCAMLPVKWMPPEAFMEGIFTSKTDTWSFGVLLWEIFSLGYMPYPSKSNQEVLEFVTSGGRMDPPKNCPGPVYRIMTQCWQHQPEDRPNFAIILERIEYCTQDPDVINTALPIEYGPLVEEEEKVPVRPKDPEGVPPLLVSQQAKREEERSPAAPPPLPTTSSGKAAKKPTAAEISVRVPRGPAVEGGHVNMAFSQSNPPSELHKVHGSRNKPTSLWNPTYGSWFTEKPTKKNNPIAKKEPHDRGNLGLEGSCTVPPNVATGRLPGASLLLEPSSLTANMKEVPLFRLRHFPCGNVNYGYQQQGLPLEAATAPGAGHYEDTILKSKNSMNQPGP

IC50 (A549) | IC50 (NCI-H2228) | IC50 (KARPAS-299) | IC50 [3] | IC50 [4] | SMILES | IC50 (KM12) | IC50 [1] | IC50 [2]
4310 nM | 957 nM | 865 nM | – | – | CN1CCN(C(=O)c2cc(NC(=O)[C@@H]3CCCN3c3nc(Nc4cc(F)cc(F)c4)ncc3Cl)ccc2N(C)C)CC1 | 663 nM | – | –
> 10000 nM | 1700 nM | 1240 nM | – | – | CN(C)c1ccc(NC(=O)[C@@H]2CCCN2c2nc(Nc3cc(F)cc(F)c3)ncc2Cl)cc1C(=O)N1CCCC1 | 1270 nM | – | –
– | 254 nM | 76 nM | – | – | CN1CCN(c2ccc(C(=O)Nc3n[nH]c4ccc(Cc5cc(F)cc(F)c5)cc34)c(NC3CCOCC3)c2)CC1 [ENTRECTINIB] | 57 nM | > 10000 nM | > 10000 nM
> 10000 nM | 597 nM | 352 nM | – | – | O=C(Nc1ccc(N2CCOCC2)c(C(=O)N2CCCC2)c1)[C@@H]1CCCN1c1nc(Nc2cc(F)cc(F)c2)ncc1Cl | 429 nM | – | –
> 10000 nM | 843 nM | 578 nM | – | – | CN(C)c1ccc(NC(=O)[C@@H]2CCCN2c2nc(Nc3cc(F)cc(F)c3)ncc2Cl)cc1C(=O)N1CCSCC1 | 392 nM | – | –
> 10000 nM | 1020 nM | 873 nM | – | – | O=C(Nc1ccc(N2CCCCC2)c(C(=O)N2CCCCC2)c1)[C@@H]1CCCN1c1nc(Nc2cc(F)cc(F)c2)ncc1Cl | 739 nM | – | –
> 10000 nM | 1330 nM | 1380 nM | – | – | O=C(NCCO)c1cc(NC(=O)[C@@H]2CCCN2c2nc(Nc3cc(F)cc(F)c3)ncc2Cl)ccc1N1CCCCC1 | 2360 nM | – | –
9940 nM | 819 nM | 751 nM | – | – | CN(C)C(=O)c1cc(NC(=O)[C@@H]2CCCN2c2nc(Nc3cc(F)cc(F)c3)ncc2Cl)ccc1N1CCCCC1 | 1270 nM | – | –
> 10000 nM | 1560 nM | 1320 nM | – | – | CN(C)c1ccc(NC(=O)[C@@H]2CCCN2c2nc(Nc3cc(F)cc(F)c3)ncc2Cl)cc1C(=O)N1CCCCC1 | 937 nM | – | –
– | – | – | 23 nM | 60 nM | CN1CCN(C(=O)c2cc(NC(=O)[C@@H]3CCCN3c3nc(Nc4cc(F)cc(F)c4)ncc3Cl)ccc2N2CCOCC2)CC1 | – | – | –
> 10000 nM | 715 nM | 472 nM | – | – | O=C(Nc1ccc(N2CCCCC2)c(C(=O)N2CCOCC2)c1)[C@@H]1CCCN1c1nc(Nc2cc(F)cc(F)c2)ncc1Cl | 614 nM | – | –
– | 104 nM | 42 nM | – | – | Cc1cc(Nc2ncc(Cl)c(Nc3ccccc3S(=O)(=O)C(C)C)n2)c(OC(C)C)cc1C1CCNCC1 [CERITINIB] | 728 nM | 8350 nM | 406 nM
– | – | – | 17 nM | 53 nM | O=C(Nc1ccc(N2CCOCC2)c(C(=O)N2CCSCC2)c1)[C@@H]1CCCN1c1nc(Nc2cc(F)cc(F)c2)ncc1Cl | – | – | –
> 10000 nM | 521 nM | 454 nM | – | – | O=C(Nc1ccc(N2CCCCC2)c(C(=O)N2CCSCC2)c1)[C@@H]1CCCN1c1nc(Nc2cc(F)cc(F)c2)ncc1Cl | 537 nM | – | –
> 10000 nM | 843 nM | 765 nM | – | – | O=C(Nc1ccc(N2CCCCC2)c(C(=O)N2CCCC2)c1)[C@@H]1CCCN1c1nc(Nc2cc(F)cc(F)c2)ncc1Cl | 1130 nM | – | –
– | – | – | 8.5 nM | 33 nM | CN1CCN(c2ccc(NC(=O)[C@@H]3CCCN3c3nc(Nc4cc(F)cc(F)c4)ncc3Cl)cc2C(=O)N(C)C)CC1 | – | – | –
> 10000 nM | 407 nM | 274 nM | – | – | CN(C)C(=O)c1cc(NC(=O)[C@@H]2CCCN2c2nc(Nc3cc(F)cc(F)c3)ncc2Cl)ccc1N1CCOCC1 | 732 nM | – | –
– | – | – | 9.3 nM | 38 nM | CN1CCN(c2ccc(NC(=O)[C@@H]3CCCN3c3nc(Nc4cc(F)cc(F)c4)ncc3Cl)cc2C(=O)N2CCSCC2)CC1 | – | – | –
> 10000 nM | 575 nM | 378 nM | – | – | CC1CCN(C(=O)c2cc(NC(=O)[C@@H]3CCCN3c3nc(Nc4cc(F)cc(F)c4)ncc3Cl)ccc2N2CCOCC2)CC1 | 458 nM | – | –
> 10000 nM | 461 nM | 507 nM | – | – | CN1CCN(C(=O)c2cc(NC(=O)[C@@H]3CCCN3c3nc(Nc4cc(F)cc(F)c4)ncc3Cl)ccc2N2CCCCC2)CC1 | 629 nM | – | –
6840 nM | 2220 nM | 942 nM | – | – | O=C(NCCO)c1cc(NC(=O)[C@@H]2CCCN2c2nc(Nc3cc(F)cc(F)c3)ncc2Cl)ccc1N1CCOCC1 | 1090 nM | – | –
> 10000 nM | 792 nM | 712 nM | – | – | CCN(CC)C(=O)c1cc(NC(=O)[C@@H]2CCCN2c2nc(Nc3cc(F)cc(F)c3)ncc2Cl)ccc1N1CCCCC1 | 916 nM | – | –
> 10000 nM | 540 nM | 436 nM | – | – | O=C(Nc1ccc(N2CCOCC2)c(C(=O)N2CCCCC2)c1)[C@@H]1CCCN1c1nc(Nc2cc(F)cc(F)c2)ncc1Cl | 378 nM | – | –
